What follows are compounds tested against T1, CFTR (primary human bronchial epithelial cells from a ΔF508 homozygous CF donor, CF-HBE cells) (Homo sapiens, UniProt P13569, DEL508-508) (assay: TECC24 recording of CFTR-mediated transepithelial chloride transport (TECC24 AUC fold over DMSO @ 3 μM)). Conditions: 3 uM test agent; CF-HBE cells (ΔF508 homozygous) incubated 48 h; ratio of test agent AUC of forskolin-stimulated IEQ to vehicle (DMSO) AUC.
T1 construct: Primary human bronchial epithelial cells from a ΔF508 homozygous CF donor; host or cells: primary human bronchial epithelial cells (CF-HBE) from a ΔF508 homozygous CF donor
T1 sequence (P13569 with tags, fused parts or gaps DEL508-508): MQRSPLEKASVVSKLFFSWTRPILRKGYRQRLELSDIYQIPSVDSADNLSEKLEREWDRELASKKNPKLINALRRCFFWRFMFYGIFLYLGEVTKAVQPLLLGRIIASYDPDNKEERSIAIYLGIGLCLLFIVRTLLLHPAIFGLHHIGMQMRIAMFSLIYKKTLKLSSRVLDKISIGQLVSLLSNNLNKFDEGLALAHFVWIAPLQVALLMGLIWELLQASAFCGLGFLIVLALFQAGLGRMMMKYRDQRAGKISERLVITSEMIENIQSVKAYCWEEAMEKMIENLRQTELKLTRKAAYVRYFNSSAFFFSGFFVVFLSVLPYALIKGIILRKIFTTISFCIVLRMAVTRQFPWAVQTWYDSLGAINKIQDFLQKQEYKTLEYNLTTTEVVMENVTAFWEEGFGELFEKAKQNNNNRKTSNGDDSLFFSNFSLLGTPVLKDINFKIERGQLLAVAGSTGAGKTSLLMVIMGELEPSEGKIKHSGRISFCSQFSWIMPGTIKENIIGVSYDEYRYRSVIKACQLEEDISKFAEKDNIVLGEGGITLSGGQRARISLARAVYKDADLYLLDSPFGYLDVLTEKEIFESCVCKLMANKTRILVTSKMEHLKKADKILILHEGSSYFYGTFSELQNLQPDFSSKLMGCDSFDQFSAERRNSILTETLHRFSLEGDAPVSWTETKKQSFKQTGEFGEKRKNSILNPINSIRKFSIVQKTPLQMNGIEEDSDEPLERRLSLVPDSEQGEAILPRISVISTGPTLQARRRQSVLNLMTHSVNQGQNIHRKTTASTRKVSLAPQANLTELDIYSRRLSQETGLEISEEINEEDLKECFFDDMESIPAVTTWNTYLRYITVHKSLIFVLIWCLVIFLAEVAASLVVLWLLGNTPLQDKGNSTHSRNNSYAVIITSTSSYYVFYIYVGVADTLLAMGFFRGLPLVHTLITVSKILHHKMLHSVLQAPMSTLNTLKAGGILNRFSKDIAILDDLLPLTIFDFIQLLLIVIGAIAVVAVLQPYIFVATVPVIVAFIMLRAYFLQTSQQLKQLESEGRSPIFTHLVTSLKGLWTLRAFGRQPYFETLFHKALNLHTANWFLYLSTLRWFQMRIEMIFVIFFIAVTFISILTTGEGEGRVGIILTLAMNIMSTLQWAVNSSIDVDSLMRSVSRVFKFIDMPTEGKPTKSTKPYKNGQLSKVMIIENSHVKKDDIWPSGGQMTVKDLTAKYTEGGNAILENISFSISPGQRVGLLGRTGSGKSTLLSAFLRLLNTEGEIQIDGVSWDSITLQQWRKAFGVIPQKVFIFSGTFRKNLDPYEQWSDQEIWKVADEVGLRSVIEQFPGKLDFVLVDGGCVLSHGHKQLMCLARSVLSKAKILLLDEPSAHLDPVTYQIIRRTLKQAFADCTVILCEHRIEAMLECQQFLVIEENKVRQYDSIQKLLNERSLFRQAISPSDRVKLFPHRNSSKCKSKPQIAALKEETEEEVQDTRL
Assay type: cell-based
Experimental: Example 510: TECC24 AUC Fold Over DMSO @ 3 μM
The effects of a test agent on CFTR-mediated transepithelial chloride transport was measured using TECC24 recording analysis. Test agents were solubilized in DMSO. Solubilized test agents were mixed with incubation medium containing DMEM/F12, Ultroser G (2%; Crescent Chemical, catalog #67042), Hyclone Fetal Clone H (2%; GE Healthcare, catalog #SH30066.02), bovine brain extract (0.25%; Lonza, catalog #CC-4098), insulin (2.5 μg/mL), IL-13 (10 ng/mL), hydrocortisone (20 nM), transferrin (2.5 μg/mL), triiodothyronine (500 nM), ethanolamine (250 nM), epinephrine (1.5 μM), phosphoethanolamine (250 nM), and retinoic acid (10 nM). Primary human bronchial epithelial cells from a ΔF508 homozygous CF donor (CF-HBE cells; from University of North Carolina Cystic Fibrosis Tissue Procurement Center), grown on Transwell HTS 24-well cell culture inserts (Costar, catalog #3378), were exposed to test agents or controls dissolved in incubation medium. The CF-HBE cells were cultured at 36.5° C. for 48 h before TECC24 recordings were performed in the presence or absence of test agent, a positive control or vehicle (DMSO).
Following incubation, the transwell cell culture inserts containing the test agent or control-treated CF-HBE cells were loaded onto a TECC24 apparatus (TECC v7 or MTECC v2; EP Design) to record the transepithelial voltage (VT) and resistance (TEER) using 4 AgCl electrodes per well configured in current-clamp mode. The apical and basolateral bath solutions both contained (in mM) 140 NaCl, 5 KCl, 2 CaCl2), 1 MgCl2, 10 Hepes, and 10 glucose (adjusted to pH 7.4 with NaOH) […]. To inhibit basal Na+ absorption, the ENaC inhibitor benzamil (10 μM) was added to the bath. Then, the adenylate cyclase activator, forskolin (10 μM), was added to the bath to activate CFTR. The forskolin-stimulated Cl− transport was halted by addition of bumetanide (20 μM), an inhibitor of the basolateral chloride co-transporter NKCC1, to the bath to confirm that the detected signal was chloride dependent. VT and TEER recordings were digitally acquired at routine intervals using TECC or MTECC software (EP Design). VT and TEER were transformed into equivalent transepithelial Cl− current (IEQ), and the Area Under the Curve (AUC) of the IEQ time course between forskolin and bumetanide addition is generated using Excel (Microsoft). Efficacy is expressed as the ratio of the test agent AUC divided by vehicle AUC. EC50s based on AUC are generated using the non-linear regression log(agonist) vs. response function in Prism software (GraphPad) with Hill Slope fixed=1.
If a test agent increased the AUC of the forskolin-stimulated IEQ relative to vehicle in CF-HBE cells, and this increase was inhibited by bumetanide, then the test agent was considered a CFTR corrector.

| Structure (SMILES) | TECC AUC vs. DMSO @ 3 uM |
| --- | --- |
| Nc1cccc(S(=O)(=O)Nc2nc(-c3ccc(C(F)(F)F)cc3)c(-c3cc(F)cc(O[C@H]4CCC(OC(F)(F)F)C4)c3)s2)c1 (single isomer, unassigned) [Example 43A] | B (“B” refers to AUC 2-5) |
| Cc1cccc(C)c1-c1nc(NS(=O)(=O)c2ccccc2)sc1-c1cc(F)cc(OCC(C)(C)C)c1 [Example 1, N-(4-(2,6-Dimethylphenyl)-5-(3-fluoro-5-(neopentyloxy)phenyl)thiazol-2-yl)benzenesulfonamide] | A (“A” refers to AUC > 5) |
| Cc1cccc(C(F)(F)F)c1-c1nc(NS(=O)(=O)c2ccccc2)sc1-c1cc(F)cc(OCCC(C)(C)C)c1 [Example 2, N-(5-(3-(3,3-Dimethylbutoxy)-5-fluorophenyl)-4-(2-methyl-6-(trifluoromethyl)phenyl)thiazol-2-yl)benzenesulfonamide] | A (“A” refers to AUC > 5) |
| CC(C)c1ccccc1-c1nc(NS(=O)(=O)c2ccccc2)sc1-c1cc(F)cc(OCCC(C)(C)C)c1 [Example 3, N-(5-(3-(3,3-Dimethylbutoxy)-5-fluorophenyl)-4-(2-isopropylphenyl)thiazol-2-yl)benzenesulfonamide] | A (“A” refers to AUC > 5) |
| CC(C)Oc1ccccc1-c1nc(NS(=O)(=O)c2ccccc2)sc1-c1cccc(OCC(C)(C)C)c1 [Example 4, N-(4-(2-Isopropoxyphenyl)-5-(3-(neopentyloxy)phenyl)thiazol-2-yl)benzenesulfonamide] | B (“B” refers to AUC 2-5) |
| CC(Oc1cc(F)ccc1-c1nc(NS(=O)(=O)c2ccn(C)n2)sc1-c1cc(F)cc(OCCC(C)(C)C)c1)C(F)(F)F (centres unmarked) [Example 5, N-(5-(3-(3,3-Dimethylbutoxy)-5-fluorophenyl)-4-(4-fluoro-2-((1,1,1-trifluoropropan-2-yl)oxy)phenyl)thiazol-2-yl)-1-methyl-1H-pyrazole-3-sulfonamide] | B (“B” refers to AUC 2-5) |
| Cc1cccc(C)c1-c1nc(NS(=O)(=O)c2cccc(N)c2)sc1-c1cc(F)cc(OCCC(C)(C)C)c1 [Example 7, 3-Amino-N-(5-(3-(3,3-dimethylbutoxy)-5-fluorophenyl)-4-(2,6-dimethylphenyl)thiazol-2-yl)benzenesulfonamide] | A (“A” refers to AUC > 5) |
| CC(C)(C)CCOc1cccc(-c2sc(NS(=O)(=O)c3cccc(N)c3)nc2-c2ccccc2C(F)(F)F)c1 [Example 8, 3-Amino-N-[5-[3-(3,3-dimethylbutoxy)phenyl]-4-[2-(trifluoromethyl)phenyl]thiazol-2-yl]benzenesulfonamide] | A (“A” refers to AUC > 5) |
| CC(C)(C)CCOc1cc(F)cc(-c2sc(NS(=O)(=O)c3cccc(N)c3)nc2-c2ccc(C(F)(F)F)cc2)c1 [Example 9, 3-Amino-N-(5-(3-(3,3-dimethylbutoxy)-5-fluorophenyl)-4-(4-(trifluoromethyl)phenyl)thiazol-2-yl)benzenesulfonamide] | B (“B” refers to AUC 2-5) |
| CC(C)(C)CCOc1cccc(-c2sc(NS(=O)(=O)c3cccc(N)c3)nc2-c2ccc(C(F)(F)F)cc2)c1 [Example 10, 3-Amino-N-(5-(3-(3,3-dimethylbutoxy)phenyl)-4-(4-(trifluoromethyl)phenyl)thiazol-2-yl)benzenesulfonamide] | A (“A” refers to AUC > 5) |
| CC(C)c1ccccc1-c1nc(NS(=O)(=O)c2cccc(N)c2)sc1-c1cc(F)cc(OCCC(C)(C)C)c1 [Example 11, 3-Amino-N-(5-(3-(3,3-dimethylbutoxy)-5-fluorophenyl)-4-(2-isopropylphenyl)thiazol-2-yl)benzenesulfonamide] | A (“A” refers to AUC > 5) |
| Cc1cccc(C)c1-c1nc(NS(=O)(=O)c2cc(N)ccc2F)sc1-c1ccc(F)c(OCC(C)(C)C(F)(F)F)c1 [Example 12, 5-Amino-N-(4-(2,6-dimethylphenyl)-5-(4-fluoro-3-(3,3,3-trifluoro-2,2-dimethylpropoxy)phenyl)thiazol-2-yl)-2-fluorobenzenesulfonamide] | A (“A” refers to AUC > 5) |
| Cc1cccc(C)c1-c1nc(NS(=O)(=O)c2cccc(NC3CC(C)(O)C3)c2)sc1-c1cccc(OCC(C)(C)C(F)(F)F)c1 (centres unmarked) [Example 13, N-(4-(2,6-Dimethylphenyl)-5-(3-(3,3,3-trifluoro-2,2-dimethylpropoxy)phenyl)thiazol-2-yl)-3-((3-hydroxy-3-methylcyclobutyl)amino)benzenesulfonamide] | A (“A” refers to AUC > 5) |
| Cc1cccc(C(F)(F)F)c1-c1nc(NS(=O)(=O)c2cccc(N)c2)sc1-c1cccc(OCCC(C)(C)C)c1 [Example 14, 3-Amino-N-(5-(3-(3,3-dimethylbutoxy)phenyl)-4-(2-methyl-6-(trifluoromethyl)phenyl)thiazol-2-yl)benzenesulfonamide] | A (“A” refers to AUC > 5) |

Results, then the compound that gave them:

| TECC AUC vs. DMSO @ 3 uM | Structure (SMILES) |
| --- | --- |
| A (“A” refers to AUC > 5) | Nc1cccc(S(=O)(=O)Nc2nc(-c3ccc(C(F)(F)F)cc3)c(-c3cc(F)cc(O[C@@H]4CCC(OC(F)(F)F)C4)c3)s2)c1 (single isomer, unassigned) [Example 43B] |
| B (“B” refers to AUC 2-5) | O=S(=O)(Nc1nc(-c2ccccc2C(F)(F)F)c(-c2cccc([C@H]3CC[C@@H](OC(F)(F)F)C3)c2)s1)c1ccccc1 (single isomer, unassigned) [Example 44A1] |
| C (“C” refers to AUC < 2) | O=S(=O)(Nc1nc(-c2ccccc2C(F)(F)F)c(-c2cccc([C@H]3CC[C@H](OC(F)(F)F)C3)c2)s1)c1ccccc1 (single isomer, unassigned) [Example 44A2] |
| B (“B” refers to AUC 2-5) | O=S(=O)(Nc1nc(-c2ccccc2C(F)(F)F)c(-c2cccc([C@@H]3CC[C@@H](OC(F)(F)F)C3)c2)s1)c1ccccc1 (single isomer, unassigned) [Example 44B1] |
| C (“C” refers to AUC < 2) | O=S(=O)(Nc1nc(-c2ccccc2C(F)(F)F)c(-c2cccc([C@@H]3CC[C@H](OC(F)(F)F)C3)c2)s1)c1ccccc1 (single isomer, unassigned) [Example 44B2] |
| B (“B” refers to AUC 2-5) | Cc1nn(C)cc1S(=O)(=O)Nc1nc(-c2ccccc2C(F)(F)F)c(-c2cccc([C@H]3CC[C@@H](OC(F)(F)F)C3)c2)s1 (single isomer, unassigned) [Example 45A1] |
| B (“B” refers to AUC 2-5) | Cc1nn(C)cc1S(=O)(=O)Nc1nc(-c2ccccc2C(F)(F)F)c(-c2cccc([C@H]3CC[C@H](OC(F)(F)F)C3)c2)s1 (single isomer, unassigned) [Example 45A2] |
| A (“A” refers to AUC > 5) | Cc1nn(C)cc1S(=O)(=O)Nc1nc(-c2ccccc2C(F)(F)F)c(-c2cccc([C@@H]3CC[C@H](OC(F)(F)F)C3)c2)s1 (single isomer, unassigned) [Example 45B1] |
| C (“C” refers to AUC < 2) | Cc1nn(C)cc1S(=O)(=O)Nc1nc(-c2ccccc2C(F)(F)F)c(-c2cccc([C@@H]3CC[C@@H](OC(F)(F)F)C3)c2)s1 (single isomer, unassigned) [Example 45B2] |
| C (“C” refers to AUC < 2) | Nc1cccc(S(=O)(=O)Nc2nc(-c3ccccc3C(F)(F)F)c(-c3cccc([C@H]4CC[C@@H](OC(F)(F)F)C4)c3)s2)c1F (single isomer, unassigned) [Example 47A1] |
| C (“C” refers to AUC < 2) | Nc1cccc(S(=O)(=O)Nc2nc(-c3ccccc3C(F)(F)F)c(-c3cccc([C@H]4CC[C@H](OC(F)(F)F)C4)c3)s2)c1F (single isomer, unassigned) [Example 47A2] |
| B (“B” refers to AUC 2-5) | Cc1cccc(C)c1-c1nc(NS(=O)(=O)c2cn(C)nc2C)sc1-c1cccc(OCC(C)(C)C(F)(F)F)c1 [Example 6, N-(4-(2,6-Dimethylphenyl)-5-(3-(3,3,3-trifluoro-2,2-dimethylpropoxy)phenyl)thiazol-2-yl)-1,3-dimethyl-1H-pyrazole-4-sulfonamide] |
